Assay results from publication PMC11053772, “Improved Chemical and Radiochemical Synthesis of Neuropeptide Y Y2 Receptor Antagonist N-Methyl-JNJ-31020028 and Preclinical Positron Emission Tomography Studies” (Pharmaceuticals, 2024).

Assays:
Y2 receptors = system: Y2 receptors; set-up: method as in PMID 19953226; conditions: cited from earlier work
[1] = In vivo PET/MRI biodistribution of the radiotracer in mice; set-up: species or system C57BL/6N mice; conditions: i.v., 30–50 min post-injection, mean ± SEM, n = 7
Procedure: PET/MRI images of N-[^11C]Me-JNJ-31020028 and biodistribution studies were performed in healthy C57BL/6N mice. The radiotracer [^11C]2 injectable solutions were administered intravenously to the mice, previously anaesthetised, and the mice were put in the MicroPET scanner for PET imaging acquisition. The MRI acquisition was performed before injection due to the necessity of using equipment different from MicroPET.
PET/MRI Imaging. PET/MRI acquisitions were performed at the Institute for Nuclear Sciences Applied to Health (ICNAS) animal facility. During both acquisitions, the animals (n = 7) were anaesthetised using 1.5–2% isoflurane, and vital signs, such as temperature and respiratory cycle, were monitored. The radiotracer was administered intravenously (i.v.) in a total injected activity of 12.0 ± 2.9 µCi/g. Mice were placed in a MicroPET scanner based on resistive plate chamber detectors (RPC-PET). […] Quantitative imaging processing was performed using PMOD (PMOD, v 3.6; PMOD Technologies, Zürich, Switzerland, RRID: SCR_016547). […] Standardised uptake values (SUVs) were calculated as [[total positron (β+ radioactivity) concentration in the VOI (Bq/mL)]/[total positron (β+ radioactivity) injected (Bq)/weight (g)]] […] The percentage injected dose per gram (%ID/g) was calculated through Equation (2). […]

Y2 receptor = system: Y2 receptor; set-up: method as in PMID 24614224; conditions: living pigs; cited from earlier work
[2] = Ex vivo biodistribution by gamma counting one hour after i.v. injection; format: in vivo, C57BL/6N mice; conditions: mice, 1 h after i.v. injection
Procedure: The ex vivo biodistribution studies were performed one hour after the intravenous injection of the [^11C]2 injectable solution. For these studies, transcardiac perfusion with saline was performed, eliminating blood traces from the organs. […] Urinary excretion also occurred, though less radioactivity was found in the urine (84.43 ± 59.41%ID/g). The small intestine (98.64 ± 25.57%ID/g) and liver (14.33 ± 6.39%ID/g) were the organs with major uptake of the radiotracer. The high uptake in the small intestine is explained by the high density of Y2 receptors that exist in this organ, while the uptake in the liver is related to the metabolization of the tracer. Moderately low uptake was found in the stomach (3.082 ± 0.7135%ID/g), large intestine (2.18 ± 0.21%ID/g) and kidneys (1.99 ± 0.49%ID/g).
Biodistribution. In another cohort of animals (n = 5), ex vivo biodistribution (%ID/g of tissue) was performed by gamma counting through CRC®-55t well counter and CRC®-55tW radioisotope dose calibrator (Capintec, Ramsey, NJ, USA). Six regions of the brain were also isolated to characterise brain accumulation; the isolation of the specific brain regions was conducted following established protocols.

[3] = mean ± SEM, n = 5, listed as [^11C]2

SMILES: CCN(CC)C(=O)C(c1ccccc1)N1CCN(c2ccc(NC(=O)c3ccccc3-c3cccnc3)cc2F)CC1 (stereo not shown) [JNJ-31020028, N-(4-{4-[2-(diethylamino)-2-oxo-1-phenylethyl]piperazin1-yl}-3-fluorophenyl)-2-pyridin-3-ylbenzamide]
- Affinity and selectivity towards the Y2 receptors (Y2 receptors): high affinity and selectivity

SMILES: CCN(CC)C(=O)C(c1ccccc1)N1CCN(c2ccc(N([11CH3])C(=O)c3ccccc3-c3cccnc3)cc2F)CC1 (stereo not shown) [N-[^11C]Me-JNJ-31020028]
- Uptake in the brain (in vivo PET) [1]: 0.5187 ± 0.08 %ID/g
- Uptake in the gut (in vivo PET) [1]: 12.57 ± 1.27 %ID/g
- Blood–brain barrier permeation (Y2 receptor): permeated the blood–brain barrier
- Metabolization in the bloodstream (Y2 receptor): slow metabolization in the bloodstream
- Route of elimination ([2]; from uptake in bile): mainly eliminated through the hepatobiliary system
- Ex vivo biodistribution, small intestine ([2]; intestine wall, mean ± SEM, n = 5): 98.64 ± 25.57 %ID/g
- Brain ex vivo biodistribution, amygdala ([2]; mean ± SEM, n = 5): 0.9318 ± 0.08 %ID/g
- Brain ex vivo biodistribution, cerebellum ([2]; mean ± SEM, n = 5): 0.646 ± 0.10 %ID/g
- Brain ex vivo biodistribution, hippocampus ([2]; mean ± SEM, n = 5): 0.8976 ± 0.09 %ID/g
- Brain ex vivo biodistribution, hypothalamus ([2]; mean ± SEM, n = 5): 1.03 ± 0.11 %ID/g
- Brain ex vivo biodistribution, pre-frontal cortex (PFC) ([2]; mean ± SEM, n = 5): 0.636 ± 0.06 %ID/g
- Brain ex vivo biodistribution, striatum ([2]; mean ± SEM, n = 5): 1.013 ± 0.11 %ID/g
- Ex vivo biodistribution, blood ([2]; mean ± SEM, n = 5): 3.661 %ID/g
- Ex vivo biodistribution, kidney ([2]; mean ± SEM, n = 5): 1.986 %ID/g
- Ex vivo biodistribution, large intestine ([2]; mean ± SEM, n = 5): 2.18 ± 0.21 %ID/g
- Ex vivo biodistribution, liver ([2]; mean ± SEM, n = 5): 14.33 ± 6.39 %ID/g
- Ex vivo biodistribution, urine ([2]; mean ± SEM, n = 5): 84.43 ± 59.41 %ID/g
- Ex vivo biodistribution, bile [2, 3]: 250.1 ± 23.97 %ID/g
- Ex vivo biodistribution, blood [2, 3]: 3.66 ± 1.55 %ID/g
- Ex vivo biodistribution, kidney [2, 3]: 1.99 ± 0.49 %ID/g
- Ex vivo biodistribution, stomach [2, 3]: 3.082 ± 0.7135 %ID/g
- Ex vivo biodistribution, faeces ([2]; n = 5): 3.149 %ID/g
- Ex vivo biodistribution, heart ([2]; n = 5): 1.394 %ID/g
- Ex vivo biodistribution, lung ([2]; n = 5): 0.5568 %ID/g
- Ex vivo biodistribution, muscle ([2]; n = 5): 0.9318 %ID/g
- Ex vivo biodistribution, spleen ([2]; n = 5): 1.504 %ID/g
- Ex vivo biodistribution, whole brain ([2]; n = 5): 0.6362 %ID/g
